Key:
Assay type in all cases: in vivo
barnyard grass (Eo) [1] = assay: Test Example 4: selectivity for a crop plant by flooded paddy field treatment; set-up: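 0-5 growth inhibition grade; 5 = over 90%; 4 = 70-90%; 3 = 50-70%; 2 = 30-50%; 1 = 10-30%; 0 = under 10%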; settings: barnyard grass, dose 25 gai/10a, 21st day after treatment, index per Table 44
How it was run: (§1)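 Flooded paddy pots, 3 cm water; weeds sown from seed, rice transplanted at 2nd-leaf stage. Day after: wettable powder diluted in water, applied dropwise to water surface, 25 g a.i./10 a. Greenhouse; herbicidal effect rated at day 21.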

monochoria (Mo) [2] = assay: as above; set-up: scale not given here; settings: monochoria, dose 25 gai/10a, 21st day after treatment, index per Table 44
How it was run: as §1

rice (Or) = assay: as above; set-up: scale not given here; settings: rice transplanted at second leaf stage, dose 25 gai/10a, 21st day after treatment, index per Table 44
How it was run: as §1

monochoria (Mo) [3] = assay: Test Example 1: herbicidal effects by flooded paddy field treatment; set-up: herbicidal effects, Mo (monochoria):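 0-5 growth inhibition grade; 5 = over 90%; 4 = 70-90%; 3 = 50-70%; 2 = 30-50%; 1 = 10-30%; 0 = under 10%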; settings: for Herbicidal effect index, Mo: dose 100 gai/10a, examined on 21st day after treatment, index 0-5 per Table 44; for herbicidal effects, Mo (monochoria): dose 100 g active ingredient per 10 ares, examined on the 21st day after treatment, standards of Table 44;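 for Herbicidal effect index, Mo: 0-5 growth inhibition grade; 5 = over 90%; 4 = 70-90%; 3 = 50-70%; 2 = 30-50%; 1 = 10-30%; 0 = under 10%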
How it was run: (§2)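 Puddled paddy soil in pots, seeds sown, 3 cm flood. Day after sowing: wettable powder diluted in water, applied dropwise to water surface, 100 g a.i./10 ares. Greenhouse; visual herbicidal rating at day 21 post-treatment.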

barnyard grass (Eo) [4] = assay: as above; set-up: herbicidal effects, Eo (barnyard grass):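 0-5 growth inhibition grade; 5 = over 90%; 4 = 70-90%; 3 = 50-70%; 2 = 30-50%; 1 = 10-30%; 0 = under 10%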; settings: for Herbicidal effect index, Eo: dose 100 gai/10a, examined on 21st day after treatment, index 0-5 per Table 44; for herbicidal effects, Eo (barnyard grass): dose 100 g active ingredient per 10 ares, examined on the 21st day after treatment, standards of Table 44
How it was run: as §2

barnyard grass (Ec) = assay: Test Example 2: herbicidal effects by upland soil treatment; set-up: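 0-5 growth inhibition grade; 5 = over 90%; 4 = 70-90%; 3 = 50-70%; 2 = 30-50%; 1 = 10-30%; 0 = under 10%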; settings: dose 100 g active ingredient per 10 ares, examined on the 21st day after treatment, standards of Table 44
How it was run: (§3)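 Pre-emergence test: barnyard grass and green foxtail sown in upland soil, then soil surface sprayed with wettable-powder formulation at 100 g active ingredient per 10 ares (100 l per 10 ares). Grown in greenhouse; herbicidal effect scored on a rating scale 21 days after treatment.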

green foxtail (Se) = assay: as above; settings: dose 100 g active ingredient per 10 ares, examined on the 21st day after treatment, standards of Table 44;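 note: 0-5 growth inhibition grade; 5 = over 90%; 4 = 70-90%; 3 = 50-70%; 2 = 30-50%; 1 = 10-30%; 0 = under 10%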
How it was run: as §3
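Throughout, for Herbicidal effect index, Eo: 0-5 growth inhibition grade; 5 = over 90%; 4 = 70-90%; 3 = 50-70%; 2 = 30-50%; 1 = 10-30%; 0 = under 10%.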

CC(C)C(c1cncnc1C(F)(F)F)N(C)C(=O)COc1ccccc1F (racemic) [Compound 1-125]
Eo (herbicidal effect index) (barnyard grass (Eo) [1]): 5 | Mo (herbicidal effect index) (monochoria (Mo) [2]): 5 | Or (herbicidal effect index on crop) (rice (Or)): 0 | Herbicidal effect index, Mo (monochoria (Mo) [3]): 5 | Herbicidal effect index, Eo (barnyard grass (Eo) [4]): 5 | herbicidal effects, Ec (barnyard grass) (barnyard grass (Ec)): 5 | herbicidal effects, Se (green foxtail) (green foxtail (Se)): 5

CC(C)C(c1cncnc1C(F)(F)F)N(C)C(=O)COc1cccc(F)c1 (racemic) [Compound 1-126]
Eo (herbicidal effect index) (barnyard grass (Eo) [1]): 5 | Mo (herbicidal effect index) (monochoria (Mo) [2]): 5 | Or (herbicidal effect index on crop) (rice (Or)): 1 | Herbicidal effect index, Mo (monochoria (Mo) [3]): 5 | Herbicidal effect index, Eo (barnyard grass (Eo) [4]): 5 | herbicidal effects, Ec (barnyard grass) (barnyard grass (Ec)): 5 | herbicidal effects, Se (green foxtail) (green foxtail (Se)): 5

CC(C)c1ncncc1C(C(C)C)N(C)C(=O)Cc1ccc(Cl)cc1 (racemic) [Compound 1-130]
Eo (herbicidal effect index) (barnyard grass (Eo) [1]): 5 | Mo (herbicidal effect index) (monochoria (Mo) [2]): 5 | Or (herbicidal effect index on crop) (rice (Or)): 1 | herbicidal effects, Mo (monochoria) (monochoria (Mo) [3]): 5 | herbicidal effects, Eo (barnyard grass) (barnyard grass (Eo) [4]): 5 | herbicidal effects, Ec (barnyard grass) (barnyard grass (Ec)): 5 | herbicidal effects, Se (green foxtail) (green foxtail (Se)): 5

Cc1ccc(CC(=O)N(C)C(c2cncnc2C(C)C)C(C)C)cc1 (racemic) [Compound 1-131]
Eo (herbicidal effect index) (barnyard grass (Eo) [1]): 5 | Mo (herbicidal effect index) (monochoria (Mo) [2]): 5 | Or (herbicidal effect index on crop) (rice (Or)): 1 | herbicidal effects, Mo (monochoria) (monochoria (Mo) [3]): 5 | herbicidal effects, Eo (barnyard grass) (barnyard grass (Eo) [4]): 5 | herbicidal effects, Ec (barnyard grass) (barnyard grass (Ec)): 5 | herbicidal effects, Se (green foxtail) (green foxtail (Se)): 5

Cc1ccccc1OCC(=O)N(C)C(c1cncnc1C(F)(F)F)C(C)C (racemic) [Compound 1-134]
Eo (herbicidal effect index) (barnyard grass (Eo) [1]): 5 | Mo (herbicidal effect index) (monochoria (Mo) [2]): 5 | Or (herbicidal effect index on crop) (rice (Or)): 0 | herbicidal effects, Mo (monochoria) (monochoria (Mo) [3]): 5 | herbicidal effects, Eo (barnyard grass) (barnyard grass (Eo) [4]): 5 | herbicidal effects, Ec (barnyard grass) (barnyard grass (Ec)): 5 | herbicidal effects, Se (green foxtail) (green foxtail (Se)): 5

Cc1cccc(OCC(=O)N(C)C(c2cncnc2C(F)(F)F)C(C)C)c1 (racemic) [Compound 1-135]
Eo (herbicidal effect index) (barnyard grass (Eo) [1]): 5 | Mo (herbicidal effect index) (monochoria (Mo) [2]): 5 | Or (herbicidal effect index on crop) (rice (Or)): 1 | herbicidal effects, Mo (monochoria) (monochoria (Mo) [3]): 5 | herbicidal effects, Eo (barnyard grass) (barnyard grass (Eo) [4]): 5 | herbicidal effects, Ec (barnyard grass) (barnyard grass (Ec)): 5 | herbicidal effects, Se (green foxtail) (green foxtail (Se)): 5

Cc1ccc(OCC(=O)N(C)C(c2cncnc2C(F)(F)F)C(C)C)cc1 (racemic) [Compound 1-136]
Eo (herbicidal effect index) (barnyard grass (Eo) [1]): 5 | Mo (herbicidal effect index) (monochoria (Mo) [2]): 5 | Or (herbicidal effect index on crop) (rice (Or)): 1 | herbicidal effects, Mo (monochoria) (monochoria (Mo) [3]): 5 | herbicidal effects, Eo (barnyard grass) (barnyard grass (Eo) [4]): 5 | herbicidal effects, Ec (barnyard grass) (barnyard grass (Ec)): 5 | herbicidal effects, Se (green foxtail) (green foxtail (Se)): 5

CN(C(=O)Cc1ccc(Cl)cc1)C(c1cncnc1C(F)(F)F)C1CCCC1 (racemic) [Compound 1-139]
Eo (herbicidal effect index) (barnyard grass (Eo) [1]): 5 | Mo (herbicidal effect index) (monochoria (Mo) [2]): 5 | Or (herbicidal effect index on crop) (rice (Or)): 0 | herbicidal effects, Mo (monochoria) (monochoria (Mo) [3]): 5 | herbicidal effects, Eo (barnyard grass) (barnyard grass (Eo) [4]): 5 | herbicidal effects, Ec (barnyard grass) (barnyard grass (Ec)): 5 | herbicidal effects, Se (green foxtail) (green foxtail (Se)): 5

Reference: patent US6806230B1, “Pyrimidine derivatives and herbicides containing them” (Kumiai Chemical Industry Co., Ltd., priority 1999, dated 2004)
